Data as given in US11566024B2 (CHANGZHOU QIANHONG BIOPHARMA CO., LTD, priority 2018, dated 2023).

How the values were obtained:
[1] = physchem; settings: for solubility: 25 °C, thermodynamic from solid
Source text: Perform scale-up experiments on the above six salts to determine solubilities of various salts in different pH buffers and deionized water, and compare with the free base.

[2] = Hygroscopicity (DVS); type: physicochemical; settings: for hygroscopicity (in words): DVS experiments on the Active Pharmaceutical Ingredients; for hygroscopicity class (in words) / hygroscopic weight gain: at 80% humidity; for hygroscopic weight gain: tartrate
[3] = Preliminary stability tests (high temperature, high humidity, illumination); type: physicochemical; settings: high humidity, and illumination, versus free base and other salt forms
Source text: However, unlike phosphates and the like, the above increase in solubility is not accompanied by a significant increase in hygroscopicity. […] The above and other advantages will be favorable for overcoming various challenges faced by the development of pharmaceutical products containing selective CDK 9 kinase inhibitors of Formula I.

[4] = Equilibrium solubility of crystal forms under simulated in vivo conditions; type: physicochemical; settings: simulated in vivo conditions (pH=2.0, 4.6, 6.8)
[5] = Conversion experiments between the crystal forms; type: physicochemical; settings: conversion between Crystal Form A and Form B

## CNc1nc(C)c(-c2nc(Nc3cccc(S(N)(=O)=O)c3)ncc2F)s1.O=C(O)C(O)C(O)C(=O)O [Tartrate, 3-(5-fluoro-4-(4-methyl-2-(methylamino)thiazol-5-yl)pyrimidin-2-ylamino)-benzenesulfonamide tartrate]
[1]; pH 2, aqueous buffer
  solubility: 4300 µg/mL
[1]; pH 4.5, aqueous buffer
  solubility: 7.5 µg/mL
[1]; pH 6.8, aqueous buffer
  solubility: 3.7 µg/mL
[1]; water
  solubility: 418 µg/mL
[1]; pH 2.0 buffer and deionized water, HPLC
  solubility compared to the raw materials (in words): significantly increased
[2]
  hygroscopicity (in words): lowest hygroscopicity
[3]
  stability (in words): better stability

## CNc1nc(C)c(-c2nc(Nc3cccc(S(N)(=O)=O)c3)ncc2F)s1.O=C(O)C(O)C(O)C(=O)O [Form A, 3-(5-fluoro-4-(4-methyl-2-(methylamino)thiazol-5-yl)pyrimidin-2-ylamino)-benzenesulfonamide tartrate]
[4]
  equilibrium solubility (in words): greater than that of Form B
[5]
  crystal form stability (in words): more stable crystal form
[2]
  hygroscopicity class (in words): non-hygroscopic
  hygroscopic weight gain: 0.22%

## CNc1nc(C)c(-c2nc(Nc3cccc(S(N)(=O)=O)c3)ncc2F)s1.O=P(O)(O)O [Phosphate]
[2]
  hygroscopicity (in words): highest hygroscopicity
[2]; DVS, 60% RH
  water absorbed: 11.71%

## CNc1nc(C)c(-c2nc(Nc3cccc(S(N)(=O)=O)c3)ncc2F)s1.O=C(O)C(O)C(O)C(=O)O [Form B, 3-(5-fluoro-4-(4-methyl-2-(methylamino)thiazol-5-yl)pyrimidin-2-ylamino)-benzenesulfonamide tartrate]
[2]
  hygroscopicity class (in words): non-hygroscopic
  hygroscopic weight gain: 0.11%

## CNc1nc(C)c(-c2nc(Nc3cccc(S(N)(=O)=O)c3)ncc2F)s1 [LS007, 3-(5-fluoro-4-(4-methyl-2-(methylamino)thiazol-5-yl)pyrimidin-2-ylamino)-benzenesulfonamide]
[2]
  hygroscopicity (in words): very low hygroscopicity
